pIC50: −log10 of the molar value. Where “and” joins values, the source holds several entries; their conditions need not be identical. Equal entries are not always repeated.
Columns and labels:
[1] = test system: p53 and Rb pathways in HUVECs; assay: Western blot of p53, p21 and Rb in HUVEC; assay type: cell-based, human
Description: Cells were lysed by adding 1 volume of 2× Laemmli buffer and were then boiled for 5 min. The samples were separated by SDS-PAGE and transferred to nitrocellulose membrane (Bio-Rad). Proteins were detected using primary antibodies for p53 (Santa Cruz), met-14-3-3γ (Novus), p21 (Santa Cruz), Rb (Santa Cruz), MetAP2 (Hu, X. et al (2006) Proc. Natl. Acad. Sci. U.S.A. 103, 18148-18153), SirT1 (Santa Cruz), acetyl-p53-K382 (Abeam), acetyl-tubulin (Sigma), histone-H3 (Santa Cruz), acetyl-H3 (Santa Cruz) and α-tubulin (TU-02, Santa Cruz) followed by the incubation with horseradish peroxidase (HRP)-conjugated anti-mouse or anti-rabbit antibodies (Santa Cruz) and enhanced chemiluminescence (ECL, Amersham).

[2] = test system: p53 and p21 mRNA; assay: RT-PCR of p53 and p21 mRNA in HUVEC; assay type: cell-based, human; settings: time-dependent
Description: Total RNA from cells was isolated by Trizol reagent (Invitrogen) according to manufacturer's instruction. The RNA was then reverse transcribed using Superscript III (Invitrogen) and the standard PCR procedure was conducted using specific primer sets for p53 and p21 as following; 5′-[…]-3′ (forward) and 5′-[…]-3′ (reverse) for p53, 5′-[…]-3′ (forward) and 5′-[…]-3′ (reverse) for p21. RT-PCR analysis of GAPDH was used as an internal control for normalization.

[3] = test system: angiogenesis in Matrigel plugs; assay: Matrigel plug assay in vivo; settings: 60 mg/kg, i.p., nude mice, versus vehicle
Description: Female athymic nude mice (NCR nu/nu, 4-6 weeks old) were purchased from NCI-Frederick, Md. and treated in accordance with Johns Hopkins Animal Care and Use Committee procedures. […] Mice were pre-treated for 3 days before 0.5 mL of Matrigel (BD Biosciences) containing 150 ng/ml VEGF and 200 ng/ml bFGF was implanted subcutaneously. Drug treatment was continued daily for an additional 10 days. Mice were sacrificed, and Matrigel plugs were harvested, fixed in neutral buffered formalin, and processed for histology using MAS-trichrome staining. A cross-section of the entire Matrigel plug was photographed at ×100. And erythrocyte-filled blood vessels were counted per field in a blinded manner.

[4] = target: T1, SirT1 (Homo sapiens, UniProt Q96EB6); assay: biochemical; settings: SirT1 IC50, recombinant human sirtuin, fluorogenic substrate
T1 sequence (Q96EB6 1-747): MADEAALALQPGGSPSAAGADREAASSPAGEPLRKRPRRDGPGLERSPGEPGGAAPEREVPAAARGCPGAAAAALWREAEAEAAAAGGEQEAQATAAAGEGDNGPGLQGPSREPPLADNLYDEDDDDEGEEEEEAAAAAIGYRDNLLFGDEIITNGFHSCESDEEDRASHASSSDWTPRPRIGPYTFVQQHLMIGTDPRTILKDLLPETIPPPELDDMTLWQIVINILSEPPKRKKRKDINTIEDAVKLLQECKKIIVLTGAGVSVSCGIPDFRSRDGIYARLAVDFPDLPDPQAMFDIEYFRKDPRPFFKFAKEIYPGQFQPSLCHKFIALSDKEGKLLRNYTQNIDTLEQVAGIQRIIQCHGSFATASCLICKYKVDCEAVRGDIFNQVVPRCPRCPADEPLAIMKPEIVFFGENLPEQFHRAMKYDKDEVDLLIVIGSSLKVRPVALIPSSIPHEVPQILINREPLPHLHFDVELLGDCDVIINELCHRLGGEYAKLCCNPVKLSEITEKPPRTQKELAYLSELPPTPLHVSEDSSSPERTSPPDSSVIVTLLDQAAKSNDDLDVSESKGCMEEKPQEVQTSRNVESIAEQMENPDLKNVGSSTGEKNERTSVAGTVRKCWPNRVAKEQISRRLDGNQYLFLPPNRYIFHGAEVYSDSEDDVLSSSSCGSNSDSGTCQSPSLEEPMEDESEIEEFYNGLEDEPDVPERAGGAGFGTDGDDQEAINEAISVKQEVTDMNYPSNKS
Description: The sirtuin fluorometric assay kits were obtained from Biomol. The assay was conducted according to the manufacturer's instruction. One unit of SirT1 was used per reaction. For SirT2 and SirT3, 2 units were used for the assay.

SMILES: O=[N+]([O-])c1ccc(O)c2ncccc12 [Entry 1c, nitroxoline]
- p53 protein level [1]: upregulation
- Rb hyperphosphorylation ([1]; 8% SDS-PAGE): inhibited its hyperphosphorylation
- total amount of Rb protein ([1]; 12% SDS-PAGE): increased the total amount of Rb protein
- p21 protein level on longer incubation ([1]; longer incubation): upregulated
- p53 protein level on prolonged exposure ([1]; up to 72 h): sustained increase in p53 protein level
- expression of p21 ([1]; within 24 h of treatment): no effect
- p21 mRNA level [2]: increased
- p53 mRNA level [2]: decreased
- density of new blood vessels in Matrigel plugs [3]: dramatic reduction in the density of new blood vessels
- pIC50 [4]: 5.10 and 5.07

From US8729097B2, “Quinoline compounds as inhibitors of angiogenesis, human methionine aminopeptidase, and SIRT1, and methods of treating disorders” (The Johns Hopkins University, priority 2008, dated 2014)
